In patent publication US9980943B2, “Methods of treating muscular dystrophy” (BOARD OF REGENTS OF THE NEVADA SYSTEM OF HIGHER EDUCATION, …, priority 2013, dated 2018):

How the values were obtained:
Type in all cases: cell-based, mouse
[1] = system: β-galactosidase in CMV-LacZ C2C12 myoblasts; assay: CMV-LacZ secondary screen in C2C12 myoblasts (β-Gal stabilizing assay); details: CMV-LacZ C2C12 myoblasts
Method in brief: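 β-gal stabilization was measured in C2C12 myoblasts or myotubes stably transfected with a CMV-driven LacZ construct, using the FDG β-gal assay. Compounds were tested in dose-response at 0.5, 1, 5, 10, 20 and 40 μM, with two replicates per point.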

[2] = system: α7 integrin (LacZ reporter in α7βgal+/− myoblasts); assay: Myoblast α7+/LacZ integrin FDG assay (Burkin assay in myoblasts, 96-well); details: α7+/LacZ myoblasts, 96-well
[3] = system: β-galactosidase in CMV-LacZ C2C12 myotubes; assay: CMV-LacZ secondary screen in C2C12 myotubes (β-Gal stabilizing assay); details: C2C12 CMV-LacZ myotubes, fold relative to DMSO
Method in brief: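 Dose-response runs at 0.5–40 μM (0.5, 1, 5, 10, 20, 40 μM; N=2 per point) used a clonal C2C12 line carrying CMV-LacZ. Cells were assayed as myoblasts or as differentiated myotubes, and β-galactosidase levels were read with the FDG fluorogenic substrate.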

[4] = system: α7 integrin (LacZ reporter in α7+/LacZ myotubes); assay: Myotube α7 integrin FDG assay (Burkin assay in myotubes, 96-well); details: myotubes

## CCN(CC)C(=O)c1sc2nc(-c3ccc(OC)cc3)cn2c1C [MLS000089464-01]
[1]; 0.5 uM
  CMV-LACZ in Myoblasts (β-galactosidase activity relative to DMSO): 0.9117
[1]; 1 uM
  CMV-LACZ in Myoblasts (β-galactosidase activity relative to DMSO): 0.9160
[1]; 5 uM
  CMV-LACZ in Myoblasts (β-galactosidase activity relative to DMSO): 0.9372
[1]; 10 uM
  CMV-LACZ in Myoblasts (β-galactosidase activity relative to DMSO): 1.1969
[1]; 20 uM
  CMV-LACZ in Myoblasts (β-galactosidase activity relative to DMSO): 0.7500
[1]; 40 uM
  CMV-LACZ in Myoblasts (β-galactosidase activity relative to DMSO): 0.5274
[2]; 0.5 uM
  Burkin Assay in Myoblasts, signal relative to DMSO: 0.9965
[2]; 1 uM
  Burkin Assay in Myoblasts, signal relative to DMSO: 0.9802
[2]; 5 uM
  Burkin Assay in Myoblasts, signal relative to DMSO: 0.934
[2]; 10 uM
  Burkin Assay in Myoblasts, signal relative to DMSO: 0.7825
[2]; 20 uM
  Burkin Assay in Myoblasts, signal relative to DMSO: 0.5631
[2]; 40 uM
  Burkin Assay in Myoblasts, signal relative to DMSO: 0.3911
[3]; 0.5 uM
  CMV-LACZ in Myotubes, signal relative to DMSO: 0.9716
[3]; 1 uM
  CMV-LACZ in Myotubes, signal relative to DMSO: 1.3716
[3]; 5 uM
  CMV-LACZ in Myotubes, signal relative to DMSO: 0.9400
[3]; 10 uM
  CMV-LACZ in Myotubes, signal relative to DMSO: 0.9529
[3]; 20 uM
  CMV-LACZ in Myotubes, signal relative to DMSO: 1.3067
[3]; 40 uM
  CMV-LACZ in Myotubes, signal relative to DMSO: 1.0178
[4]; 0.5 uM
  Burkin Assay in Myotubes, α7 integrin LacZ reporter signal relative to DMSO: 1.063
[4]; 1 uM
  Burkin Assay in Myotubes, α7 integrin LacZ reporter signal relative to DMSO: 1.029
[4]; 5 uM
  Burkin Assay in Myotubes, α7 integrin LacZ reporter signal relative to DMSO: 1.128
[4]; 10 uM
  Burkin Assay in Myotubes, α7 integrin LacZ reporter signal relative to DMSO: 0.9917
[4]; 20 uM
  Burkin Assay in Myotubes, α7 integrin LacZ reporter signal relative to DMSO: 0.9545
[4]; 40 uM
  Burkin Assay in Myotubes, α7 integrin LacZ reporter signal relative to DMSO: 0.8373

## CC(O)CNc1nc2c(c(=O)n(Cc3ccc(Br)cc3)c(=O)n2C)n1C (stereo not drawn) [MLS001212319-01]
[1]; 0.5 uM
  CMV-LACZ in Myoblasts (β-galactosidase activity relative to DMSO): 0.9129
[1]; 1 uM
  CMV-LACZ in Myoblasts (β-galactosidase activity relative to DMSO): 1.2040
[1]; 5 uM
  CMV-LACZ in Myoblasts (β-galactosidase activity relative to DMSO): 1.0840
[1]; 10 uM
  CMV-LACZ in Myoblasts (β-galactosidase activity relative to DMSO): 0.8600
[1]; 20 uM
  CMV-LACZ in Myoblasts (β-galactosidase activity relative to DMSO): 1.2056
[1]; 40 uM
  CMV-LACZ in Myoblasts (β-galactosidase activity relative to DMSO): 1.0259
[2]; 0.5 uM
  Burkin Assay in Myoblasts, signal relative to DMSO: 1.05
[2]; 1 uM
  Burkin Assay in Myoblasts, signal relative to DMSO: 1.026
[2]; 5 uM
  Burkin Assay in Myoblasts, signal relative to DMSO: 0.9412
[2]; 10 uM
  Burkin Assay in Myoblasts, signal relative to DMSO: 0.8826
[2]; 20 uM
  Burkin Assay in Myoblasts, signal relative to DMSO: 0.8529
[2]; 40 uM
  Burkin Assay in Myoblasts, signal relative to DMSO: 0.782
[3]; 0.5 uM
  CMV-LACZ in Myotubes, signal relative to DMSO: 1.1524
[3]; 1 uM
  CMV-LACZ in Myotubes, signal relative to DMSO: 0.8152
[3]; 5 uM
  CMV-LACZ in Myotubes, signal relative to DMSO: 0.9525
[3]; 10 uM
  CMV-LACZ in Myotubes, signal relative to DMSO: 0.9253
[3]; 20 uM
  CMV-LACZ in Myotubes, signal relative to DMSO: 0.9965
[3]; 40 uM
  CMV-LACZ in Myotubes, signal relative to DMSO: 1.0706
[4]; 0.5 uM
  Burkin Assay in Myotubes, α7 integrin LacZ reporter signal relative to DMSO: 1.134
[4]; 1 uM
  Burkin Assay in Myotubes, α7 integrin LacZ reporter signal relative to DMSO: 1.139
[4]; 5 uM
  Burkin Assay in Myotubes, α7 integrin LacZ reporter signal relative to DMSO: 0.9476
[4]; 10 uM
  Burkin Assay in Myotubes, α7 integrin LacZ reporter signal relative to DMSO: 0.9201
[4]; 20 uM
  Burkin Assay in Myotubes, α7 integrin LacZ reporter signal relative to DMSO: 0.7396
[4]; 40 uM
  Burkin Assay in Myotubes, α7 integrin LacZ reporter signal relative to DMSO: 0.631

## COc1ccc(CCNC(=O)Cn2nnc(C(=O)Nc3ccc(Br)cc3)c2N)cc1OC [MLS000912699-01]
[1]; 0.5 uM
  CMV-LACZ in Myoblasts (β-galactosidase activity relative to DMSO): 0.7147
[1]; 1 uM
  CMV-LACZ in Myoblasts (β-galactosidase activity relative to DMSO): 0.8744
[1]; 5 uM
  CMV-LACZ in Myoblasts (β-galactosidase activity relative to DMSO): 0.9111
[1]; 10 uM
  CMV-LACZ in Myoblasts (β-galactosidase activity relative to DMSO): 1.0462
[1]; 20 uM
  CMV-LACZ in Myoblasts (β-galactosidase activity relative to DMSO): 0.8826
[1]; 40 uM
  CMV-LACZ in Myoblasts (β-galactosidase activity relative to DMSO): 0.5204
[2]; 0.5 uM
  Burkin Assay in Myoblasts, signal relative to DMSO: 1.115
[2]; 1 uM
  Burkin Assay in Myoblasts, signal relative to DMSO: 1.038
[2]; 5 uM
  Burkin Assay in Myoblasts, signal relative to DMSO: 0.9322
[2]; 10 uM
  Burkin Assay in Myoblasts, signal relative to DMSO: 0.9298
[2]; 20 uM
  Burkin Assay in Myoblasts, signal relative to DMSO: 0.6724
[2]; 40 uM
  Burkin Assay in Myoblasts, signal relative to DMSO: 0.4392
[3]; 0.5 uM
  CMV-LACZ in Myotubes, signal relative to DMSO: 0.8089
[3]; 1 uM
  CMV-LACZ in Myotubes, signal relative to DMSO: 0.9859
[3]; 5 uM
  CMV-LACZ in Myotubes, signal relative to DMSO: 0.9419
[3]; 10 uM
  CMV-LACZ in Myotubes, signal relative to DMSO: 1.1310
[3]; 20 uM
  CMV-LACZ in Myotubes, signal relative to DMSO: 0.9235
[3]; 40 uM
  CMV-LACZ in Myotubes, signal relative to DMSO: 0.5365
[4]; 0.5 uM
  Burkin Assay in Myotubes, α7 integrin LacZ reporter signal relative to DMSO: 1.175
[4]; 1 uM
  Burkin Assay in Myotubes, α7 integrin LacZ reporter signal relative to DMSO: 0.9376
[4]; 5 uM
  Burkin Assay in Myotubes, α7 integrin LacZ reporter signal relative to DMSO: 0.9252
[4]; 10 uM
  Burkin Assay in Myotubes, α7 integrin LacZ reporter signal relative to DMSO: 0.939
[4]; 20 uM
  Burkin Assay in Myotubes, α7 integrin LacZ reporter signal relative to DMSO: 0.5217
[4]; 40 uM
  Burkin Assay in Myotubes, α7 integrin LacZ reporter signal relative to DMSO: 0.6518
